We go through 14 compounds from PubChem BioAssay (NCI).

Molecules are shown by their SMILES. Where “and” joins values, the source holds several entries; their conditions need not be identical. Equal entries are not always repeated.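 Protocol summary: plate cells (96-well), add compound at 5 concentrations, incubate 48 h, interpolate endpoints linearly. The concentration for 50% growth inhibition is given as GI50. Definition used: TGI = concentration required for complete inhibition of growth.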

Common to all, as to test: NCI-60 cell line screen, 48 h
The test system of assay [1] is IGROV1 ovarian.
Assay [2] deals with COLO 205 colon.
Assay [3] deals with SNB-75 CNS.
Assay [4] has as its system RPMI-8226 leukemia.
Assay [5] has as its system RXF 393 renal.
In assay [6] the test system is KM12 colon.
In assay [7] the test system is DU-145 prostate.
Assay [8] concerns U251 CNS.
The subject of assay [9] is SF-539 CNS.
For assay [10], the system named is UACC-257 melanoma.

For the compound `COc1cc(C(=O)/C(C)=C/c2c[nH]c3ccccc23)cc(OC)c1OC`, the GI50 in assay [1] was 0.00566 µM; in [2] it was 0.00354 µM; in [3], 0.00334 µM; in assay [4] it was 0.00482 µM; in [5] it was 1.81 µM; in assay [6] it was 0.00359 µM. Further, the GI50 was 0.00383 µM in [7], 0.00436 µM in [8] and 0.0028 µM in assay [9]. The TGI in assay [1] was > 100 µM; in assay [2], 0.0159 µM; in assay [3], 16.1 µM; in assay [4], 4.55 µM; in [5] it was > 100 µM; in [7] it was > 100 µM. The values for the TGI in [8] and in [9] were 10.6 µM and 0.0129 µM, respectively.
Turning to `COC(=O)c1cc2c(cc1Cl)SC(N(N(C)C)S(=O)(=O)c1ccc(Br)s1)=NS2(=O)=O`, the GI50 in assay [1] is 29 µM; in assay [2] it was 21.2 µM; in assay [3] it was 30.5 µM; in assay [4], 25.4 µM; in assay [6], 24.8 µM; in assay [7], 26.1 µM. Besides, the figures for the GI50 in assay [8] and in assay [9] were 30.2 µM and 21.2 µM, respectively. Moreover, the TGI in [1] came out at 94.3 µM; in assay [2] it was 50.9 µM; in assay [3], 88.7 µM; in [4], 74.1 µM; in assay [6], 74.4 µM; in assay [7], 86 µM. The TGI in assay [8] is 88.2 µM; in [9] it was 51.5 µM.
Take `CC(C)=CCCC(C)c1ccc(C)c2c1OCN(CC1CCNCC1)C2` (stereo not drawn): the GI50 in assay [1] is 16.6 µM; in assay [2] it was 1.86 µM; in [3], 11.9 µM; in assay [4], 7.25 µM; in assay [5], 9.2 µM; in [6], 12.3 µM. Further, the GI50 was 16.4 µM in [7], 2.75 µM in assay [8] and 13.7 µM in assay [9]. In addition, the TGI in assay [1] came to 32.2 µM; in assay [2], 3.41 µM; in [3], 24.3 µM; in assay [4], 32.6 µM; in [5] it was 21.7 µM; in [6], 26 µM. Also, the TGI came out at 32.2 µM in assay [7], 7.61 µM in [8] and 27.5 µM in assay [9].
Turning to `Cc1c[nH]c2c(O)cc3c(c12)[C@H](CCl)CN3C(=O)c1cc2cc(NC(=O)Nc3ccc4[nH]c(C(=O)N5C[C@@H](CCl)c6c5cc(O)c5[nH]cc(C)c65)cc4c3)ccc2[nH]1`, the GI50 in assay [1] is 0.0255 µM; in assay [2], 0.0137 µM; in assay [10], 1.27 ng/mL; in assay [7] it was 0.000923 µM. The TGI was 44 µM in assay [1]; 42.4 µM and 0.00318 µg/mL in [10]; 70.8 nM and > 100 µM and 0.000888 µg/mL in assay [5]; 15 nM and 28.1 µM and 3e-06 µg/mL in assay [6].
On to `Cn1c([N+](=O)[O-])cnc1/C=C1\Oc2ccccc2C1=O`, for which the GI50 was 0.6 µM in assay [1]; 0.543 µM in assay [2]; 0.682 µM in assay [10]; 1.51 µM in assay [3]; 1.27 µM in assay [4]; 0.412 µM in [6]. For the same compound, the GI50 was 0.307 µM in [7], 1.19 µM in [8] and 1.78 µM in assay [9]. Moreover, the TGI in [1] was 5.87 µM; in [2] it was 3.02 µM; in [10], 2.84 µM; in assay [3], 4.87 µM; in [4], 5.31 µM; in [6], 2.46 µM. Besides, the TGI in assay [7] was found to be 1.15 µM; in assay [8] it was 4.05 µM; in [9], 4.74 µM.
As for `CC(C)(C#N)c1cc(Cn2cncn2)cc(C(C)(C)C#N)c1`, the GI50 in assay [1] was 1760 µM; in assay [2] it was 2070 µM; in [10], > 10000 µM; in assay [3], > 10000 µM; in assay [4], 183 µM; in assay [6], > 10000 µM. For the same compound, the GI50 in [7] is > 10000 µM; in assay [8] it was > 10000 µM; in [9] it was 2450 µM. Moreover, the TGI in assay [1] was > 10000 µM; in assay [2] it was > 10000 µM; in [10], > 10000 µM; in assay [3], > 10000 µM; in assay [4], 698 µM; in assay [6], > 10000 µM. Moreover, the TGI in assay [7], in [8] and in [9] was > 10000 µM throughout.
On to `CN1CCN(CCCN)CC1`, for which the TGI in [1], in assay [2], in assay [10], in assay [3], in assay [4] and in assay [5] was > 100 µM each time. For the same compound, the TGI in [6], in assay [7] and in assay [8] was > 100 µM each time.
Take `C=C1C(=O)O[C@H]2[C@H]1CC/C(CNC(=O)c1cc3cc(OC)ccc3[nH]1)=C\CC[C@@]1(C)O[C@@H]21`: the GI50 in assay [1] is 2.04 µM; in assay [2], 1.21 µM; in assay [3], 1.9 µM; in assay [4], 1.58 µM; in assay [5], 1.17 µM; in [6], 4.98 µM. In addition, the GI50 in [7] is 1.21 µM; in [8], 3.35 µM; in [9], 1.42 µM. The TGI in [1] was 5.94 µM; in [2] it was 3.04 µM; in assay [3] it was 13.1 µM; in assay [4], 4.39 µM; in [5], 2.61 µM; in [6], 17.7 µM. Also, the TGI in assay [7] is 2.78 µM; in assay [8], 12.6 µM; in [9], 3 µM.
With `Cc1cc(C)c([O-])c(CN(C)CCN(C)Cc2cc(C)cc(C)c2[O-])c1.O=C([O-])c1cccc(C(=O)[O-])n1.[Ti+4]`, the GI50 was 3.2 µM in assay [1]; 2.4 µM in [2]; 1.67 µM in assay [3]; 1.37 µM in assay [4]; 1.42 µM in assay [5]; 3.36 µM in assay [6]. Further, the GI50 in assay [7] was 4.57 µM; in [8], 2.92 µM. Further, the TGI in [1] was > 100 µM; in assay [2], 5.01 µM; in [3], 5.65 µM; in [4], 5.17 µM; in [5], 3.96 µM; in [6], > 100 µM. The TGI in assay [7] and in [8] was > 100 µM each time.
As for `CCC1(CC)C(=O)OC(=O)C1(CC)CC`, the TGI in [1], in [2], in assay [3], in [4], in assay [6] and in assay [7] was > 100 µM each time. The TGI in [8] and in assay [9] was > 100 µM each time.
Regarding `O=C(/C=C/c1ccc(F)cc1)c1ccc(Cl)cc1Cl`, the GI50 in assay [1] is > 100 µM; in assay [2] it was 44.2 µM; in [10] it was 68.3 µM; in assay [4], 17.5 µM; in assay [5] it was 30.5 µM; in assay [6] it was 38.1 µM. Also, the figures for the GI50 in assay [7], in assay [8] and in [9] were 53.4 µM, 44.6 µM and > 100 µM, respectively. Moreover, the TGI is > 100 µM in assay [1]; > 100 µM in [2]; > 100 µM in [10]; 39.5 µM in [4]; 93.4 µM in assay [5]; > 100 µM in assay [6]. In addition, the TGI in [7], in [8] and in assay [9] was > 100 µM in each case.
In the case of `COc1cc(OC)c(/C=C/S(=O)(=O)Cc2cnc(OC)c(N)c2)c(OC)c1`, the GI50 is < 0.0297 µM in assay [1]; < 0.0169 µM in assay [2]; > 62 µM in assay [10]; < 0.0206 µM in assay [4]; < 0.01 µM in assay [5]; < 0.0157 µM in assay [6]. In addition, the results for the GI50 in [7] and in [8] were < 0.0202 µM and < 0.0224 µM, respectively. For the same compound, the TGI is > 100 µM in assay [1]; < 0.0322 µM in assay [2]; > 100 µM in assay [10]; > 100 µM in assay [4]; > 100 µM in assay [5]; > 100 µM in assay [6]. For the same compound, the TGI in assay [7] and in assay [8] was > 100 µM throughout.
Consider `CC(=O)Nc1ccc(C(=O)NN2C(=O)C(Cl)C2c2ccc(Cl)cc2)cc1` (stereo not drawn), for which the TGI was > 100 µM in [1]; > 100 µM in [2]; > 100 µM in [10]; 30.9 µM in [3]; > 100 µM in assay [4]; > 100 µM in [6]. For the same compound, the TGI in assay [7] was > 100 µM; in assay [8], > 56.7 µM; in assay [9] it was > 54.2 µM.
In the case of `CCOC(=O)c1cc(C#N)c(=O)n(/N=C(\C)c2ccncc2)c1O`, the GI50 in assay [1], in assay [2], in assay [10], in assay [4], in assay [6] and in assay [7] was > 100 µM each time. For the same compound, in assay [8], the GI50 is > 100 µM. Moreover, the TGI in assay [1], in assay [2], in assay [10], in assay [4], in [6] and in assay [7] was > 100 µM each time. Moreover, in [8], the TGI is > 100 µM.
